Assays:
[1] = biological target: T1, TNKS1 (Homo sapiens, UniProt O95271); test: Modified TNKS1 Assay 3 (BPS kit #80573, biotin-NAD+, 96 well); format: biochemical; conditions: human TNKS1, BPS kit #80573, 96 well
T1 sequence (O95271 1-1327): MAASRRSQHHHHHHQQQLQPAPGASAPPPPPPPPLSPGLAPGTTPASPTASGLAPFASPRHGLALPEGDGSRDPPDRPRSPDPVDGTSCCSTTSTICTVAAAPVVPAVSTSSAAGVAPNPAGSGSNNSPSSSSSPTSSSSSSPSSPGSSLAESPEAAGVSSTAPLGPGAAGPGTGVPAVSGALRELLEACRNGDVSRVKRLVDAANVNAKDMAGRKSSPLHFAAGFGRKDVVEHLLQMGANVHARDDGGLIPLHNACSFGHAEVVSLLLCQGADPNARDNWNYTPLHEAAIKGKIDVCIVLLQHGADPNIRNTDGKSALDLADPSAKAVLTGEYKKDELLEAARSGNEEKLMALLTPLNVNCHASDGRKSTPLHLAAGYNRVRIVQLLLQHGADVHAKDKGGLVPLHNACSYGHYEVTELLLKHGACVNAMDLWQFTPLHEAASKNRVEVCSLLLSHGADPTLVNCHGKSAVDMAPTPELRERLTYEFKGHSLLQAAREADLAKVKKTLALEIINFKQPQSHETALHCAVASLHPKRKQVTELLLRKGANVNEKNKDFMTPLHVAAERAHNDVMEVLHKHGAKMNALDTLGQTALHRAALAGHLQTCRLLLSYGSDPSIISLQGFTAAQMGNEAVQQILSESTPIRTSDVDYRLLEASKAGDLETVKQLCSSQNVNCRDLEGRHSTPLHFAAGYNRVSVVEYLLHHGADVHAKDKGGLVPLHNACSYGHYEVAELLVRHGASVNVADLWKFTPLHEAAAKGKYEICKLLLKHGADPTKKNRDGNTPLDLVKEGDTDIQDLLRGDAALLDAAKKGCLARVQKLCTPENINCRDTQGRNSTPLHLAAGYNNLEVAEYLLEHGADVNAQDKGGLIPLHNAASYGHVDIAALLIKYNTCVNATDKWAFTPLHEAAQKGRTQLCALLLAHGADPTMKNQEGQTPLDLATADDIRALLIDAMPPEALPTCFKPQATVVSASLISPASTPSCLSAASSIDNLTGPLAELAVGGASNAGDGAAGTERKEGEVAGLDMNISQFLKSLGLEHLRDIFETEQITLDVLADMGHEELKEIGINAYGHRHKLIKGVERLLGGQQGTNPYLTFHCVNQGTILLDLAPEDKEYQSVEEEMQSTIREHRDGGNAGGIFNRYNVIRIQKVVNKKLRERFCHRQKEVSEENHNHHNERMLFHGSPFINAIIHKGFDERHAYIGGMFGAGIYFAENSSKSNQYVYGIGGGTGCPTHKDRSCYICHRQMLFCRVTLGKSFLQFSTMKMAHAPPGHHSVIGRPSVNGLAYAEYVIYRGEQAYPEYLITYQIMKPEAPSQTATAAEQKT
Outline: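 Chemiluminescent assay of TNKS1-catalysed ribosylation of a protein substrate with biotin-labelled NAD+, detected via streptavidin-HRP; run per kit protocol. Inhibition lowers the signal, and IC50 is the compound concentration halving the normalised readout.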

[2] = test system: wildtype Wnt signaling cascade; test: HEK293 TOP Assay (Super TopFlash luciferase reporter, Wnt-3a stimulated); format: cell-based; conditions: Homo sapiens, HEK293, 16 h, HEK293 TOP reporter cell line, Wnt-3a at EC50, 16 hours incubation, compound dilution series 50 μM to 15 nM
Outline: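 Compounds (50 μM down to 15 nM, 3.16-fold steps, in CAFTY buffer pH 7.4, 2 mM Ca2+, 0.01% BSA) tested in parallel on TOP and FOP HEK293 reporter lines to define selective wildtype Wnt inhibition. Pathway driven by recombinant human Wnt-3a applied at 2500–5 ng/ml in two-fold dilutions.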

O=C(Nc1ccc(NC(=O)c2[nH]cnc2C(=O)NCCN2CCCCC2)cn1)c1ccc(F)cc1Cl [Example 110, N^5-{6-[(2-chloro-4-fluorobenzoyl)amino]pyridin-3-yl}-N^4-[2-(piperidin-1-yl)ethyl]-1H-imidazole-4,5-dicarboxamide]
IC50 [1]: 40 nM | IC50 [2]: 60 nM
